Assay results published in patent US20110124614A1, “Methods And Compositions For The Treatment of Autoimmune Disorders” (priority 2008, published 2011).
Marks after values point to notes of the source that are not given here.

Key:
Format in all cases: in vivo, mouse
[1] = system: cytokine secretion by splenocytes of WT immunized mice; assay: Cytokine secretion of mMog-35-55 stimulated splenocytes, Luminex, WT mice; settings: 48 h supernatants
Description: PD-1KO (Dr. […] One week after implantation experimental autoimmune encephalomyelitis (EAE) was induced. Splenocytes were harvested from […] cell proliferation and cytokine secretion in 48 h supernatants. (*P<0.05, or **P<0.01 compared to placebo). Lymph node and spleen cells were cultured at 4×10^6 cells/well in a 24 well flat-bottom culture plate in stimulation medium (RPMI 1640, 1% sodium pyruvate, 1% L-glutamine, 0.4% 2-β-ME, 10% FBS) with 25 μg/ml mMog-35-55 peptide for 48H. Supernatants were then harvested and stored at -80° C. until tested for cytokines. Culture supernatants were assessed for cytokine levels using a Luminex Bio-Plex mouse cytokine assay kit (BioRad, Hercules, Calif.) following the manufacturer's instructions. The following cytokines were determined in a single assay in three separate experiments: IL-1βIFN-γ, TNF-α, IL-2, IL-4, IL-5. IL-6, IL-12, IL-13, and IL-17. […] This cytokine profile was drastically altered in G-1 treated PD-1Ko mice. The decrease of Il-17 and increase of Il-6, Il-10 and IFN-γ production were abolished, whereas the reduction in IL-2 and Il-4 remained. Thus PD-1 was required for […] downregulation of IL-17 but not Il-2 and Il-4, and upregulation of IL-6, Il10 and IFN-γ.

[2] = system: experimental autoimmune encephalomyelitis (EAE) in WT C57BL/6 female mice; assay: EAE clinical scoring, E2 pellets, WT mice (Example II)
[3] = system: PD-1 expression in CD4^+FoxP3^+ or CD4^+FoxP3^− T cells; assay: PD-1 expression in CD4+FoxP3+/FoxP3- T cells by flow cytometry, E2-treated WT vs knockout mice (Example V)
Description: Age matched WT C57BL/6 from the animal service at National Cancer Institute (Frederick, Md.), GPR30KO prepared as in Example 1, or PDD-KO mice (Dr. […] Splenocytes or lymph node cells from GPR30KO mice were obtained at the end of the clinical experiment in FIG. 1A and stained for FoxP3 and PD-1, as well as cellular markers for T cells and antigen presenting cells (APC). For membrane staining, 1 million cells were stained at 4° C. in the dark with appropriate Ab dilutions in staining buffer (PBS containing 0.5% BSA and 0.02% sodium azide), Intracellular staining for FoxP3 was performed following the protocol recommended by eBioscience (San Diego, Calif.). Briefly, 4 million cells were surface stained following standard procedures. After washing, the cells were fixed overnight and washed twice with 0.5 ml of permeabilization buffer. […] Flow cytometry data were collected on LSRII and FACSCalibur flow cytometers (BD Bioscience, Franklin Lakes, N.J.), and analyzed using FlowJo software (Tree Star, Ashland, Oreg.). […] The expression levels of PD-1 were analyzed by gating on CD4^+FoxP3^+ or CD4^+FoxP3^− T cells from WT or GPR30 mice. The bar charts in FIG. 5A show the average mean fluorescence intensity (MFI) of Pd-1 in CD4^+FoxP3^+ or CD4^+FoxP3^− from all mice in each group. […]

[4] = WT, 2.5 mg/60 day release E2 pellet, 25 days

| Structure (SMILES) | secretion of IL-17 ([1]; G-1 1.8 mg/40 day pellet, WT, 25 μg/ml mMog-35-55) | production of IFN-γ ([1]; G-1 treated WT) | production of IL-1β ([1]; G-1 treated WT) | production of IL-5 ([1]; G-1 treated WT) | production of Il-4 ([1]; G-1 treated WT) | production of Il-6 ([1]; G-1 treated WT) | production of Il-12 ([1]; G-1 treated WT) | production of TNF-α ([1]; G-1 treated WT) | secretion of IL-2 ([1]; G-1 treated WT) | secretion of IL-10 ([1]; G-1 treated WT) | clinical EAE (in words) ([2]; E2-treated WT mice, 2.5 mg/60 day pellet) | Incidence ([2]; WT, 2.5 mg/60 day release E2 pellet one week before immunization, concluded 25 days after immunization) | CDI [2, 4] | Daily [2, 4] | Mortality [2, 4] | Peak ([2]; WT, 2.5 mg/60 day release E2 pellet, 25 days, EAE score scale 0-6) | PD-1 expression in non-regulatory CD4^+FoxP3^− T cells ([3]; WT or PD-1KO mice (so in the source)) | E2 induced upregulation of PD-1 expression in CD4+FoxP3+ cells ([3]; splenocytes from PD-1KO mice (so in the source), FIG. 5A) |
| --- | --- | --- | --- | --- | --- | --- | --- | --- | --- | --- | --- | --- | --- | --- | --- | --- | --- | --- |
| CC(=O)c1ccc2c(c1)C1C=CCC1C(c1cc3c(cc1Br)OCO3)N2 (stereo not drawn) [G-1] | significantly reduced | increased | did not significantly change | did not significantly change | suppressed | increased | did not significantly change | did not significantly change | significantly reduced | increased |  |  |  |  |  |  |  |  |
| C[C@]12CC[C@@H]3c4ccc(O)cc4CC[C@H]3[C@@H]1CC[C@@H]2O [E2, 17β estradiol] |  |  |  |  |  |  |  |  |  |  | no sign of the disease | 0/10 | 0** | 0** | 0/10 | 0** | did not induce a significant shift | abolished |
